Test results taken from patent publication US20200264182A1, “METHOD FOR DETECTING PROSTATE CANCER” (J-OIL MILLS, INC., priority 2017, published 2020).

Columns and labels:
serum fucosylated PSA = assay: Sandwich ELISA, anti-PSA antibody and biotin-labeled lectin; type: binding, human; settings: for Δ (=A − B): reaction value of Prostate cancer 4 minus Healthy 1; for lectin reaction value B of Healthy 1: serum of Healthy 1; for lectin reaction value A of Prostate cancer 4: serum of Prostate cancer 4, GS 6 (3 + 3)
Experimental: The anti-PSA antibody from which sugar chains had been removed was diluted to 5 μg/mL with PBS. 25 μL of this diluted solution was added to each well of an ELISA plate and allowed to stand at 37° C. for 12 hours, and then the additive solution was discarded.
150 μL of PBS containing 0.05% Tween 20 (product name: polyoxyethylene sorbitan monolaurate, from Nacalai Tesque, Inc.) was added to each well, and then the additive solution was discarded. This manipulation was repeated three times in total.
25 μL of 1% BSA/PBS was added to each well and allowed to stand at 37° C. for 1 hour, and then the additive solution was discarded.
150 μL of PBS containing 0.05% Tween 20 was added to each well, and then the additive solution was discarded. This manipulation was repeated three times in total.
To graph a calibration curve, 25 μL of the fucosylated PSA reference standard diluted with 1% BSA/PBS to a concentration of 0 to 200 ng/mL was added to each well and allowed to stand at room temperature for 1 hour, and then the additive solution was discarded. In addition, to detect the fucosylated PSA in the serum of the subject by the lectin, 25 μL of serum of “Healthy 1” and “Prostate cancer 4” 2-fold diluted with PBS was added to each well and allowed to stand at room temperature for 1 hour, and then the additive solution was discarded.
In Reference Example 1, 25 μL of a biotin-labeled PhoSL diluted to 0.1 μg/mL with 0.1% BSA/PBS (pH 7.4) was added to each well and allowed to stand at 4° C. for 30 minutes, and then the additive solution was discarded. In Example 1, 25 μL of a biotin-labeled PhoSL diluted to 0.1 μg/mL with 0.1% BSA/10-fold diluted PBS+glycine-NaOH (pH 9.6) was added to each well and allowed to stand at 4° C. for 30 minutes, and then the additive solution was discarded.
25 μL of a horseradish peroxidase (HRP)-labeled streptavidin solution (from Vector Laboratories, Inc., concentration: 0.4 μg/mL, in 1% BSA/PBS) was added to each well and allowed to stand at room temperature for 30 minutes, and then the additive solution was discarded.
25 μL of chromogenic substrate for HRP (product name: TMB, from Kirkegaard & Perry Laboratories, Inc.) was added to each well and allowed to stand at room temperature for 10 minutes.
25 μL of 1M phosphoric acid was added to terminate the reaction.
Absorbance (Ab) at 450 nm and 630 nm was measured using a plate reader, and a measurement (Ab450-630) was obtained.
A calibration curve was graphed by plotting signals (reaction values, Ab450-630) of the fucosylated PSA reference standard with the biotin-labeled PhoSL. A Signal (Ab450-630) of the biotin-labeled PhoSL corresponding to the fucosylated PSA concentration of 10 ng/mL was defined as 10 U/mL.
The signals of biotin-labeled PhoSL (Ab450-630) for the serum fucosylated PSA in the subject samples A were assigned to the calibration curve to calculate reaction values (unit: U/mL).
The PhoSL reaction values for the subject samples A were measured by the same operation as in Example 1. From the PhoSL reaction values, an average value and a median value were determined. Furthermore, a standard cutoff value (89.7 U/mL) was used to determine a detection rate (positive rate) of the prostate cancer patients, and a false detection rate (false positive rate) of the healthy persons.
Comparative Example 2 in Table 9 indicates results of detecting the serum fucosylated PSA using AAL (AAL reaction values) in the subject samples A. Specifically, in Reference Example 1, AAL reaction values were measured in the same manner as in Reference Example 1 except that the biotin-labeled PhoSL was replaced with a biotin-labeled AAL. A standard cut-off value for the AAL reaction values was 894.8 U/mL. As in Example 2, an average value, a median value, a positive rate and a false positive rate were determined from the AAL reaction values.

[1] = FAC binding constant (Table 5 entry); settings: Table 5: sugar chain having no fucose; at 25° C.
Experimental: (§1) Details of the FAC method are described in Patent Document 2 filed by some of the present applicants, for example.
(§2) Binding constants (at 25° C.) of PhoSL, SRL, NSL and LSL belonging to the fucose α1→6 specific lectin for various sugar chains are shown in Tables 2 to 5.

FAC binding constant = settings: at 25° C.
Experimental: as §1, §2

[2] = sugar chain having fucose other than α1→6 fucose

## SRL: fucose α1→6 specific lectin that can be extracted from Stropharia rugosoannulata, SEQ ID No. 2
Serum fucosylated PSA; pH in lectin reaction 7.4
  Δ (=A − B): 126.3 U/mL
  lectin reaction value B of Healthy 1: 20.0 U/mL
  lectin reaction value A of Prostate cancer 4: 146.3 U/mL
Serum fucosylated PSA; pH in lectin reaction 9.6
  Δ (=A − B): 217.7 U/mL
  lectin reaction value B of Healthy 1: 16.8 U/mL
  lectin reaction value A of Prostate cancer 4: 234.5 U/mL
[1]
  Binding constant for sugar chain No. 728: <1000 M⁻¹
FAC binding constant; Table 3: sugar chain having fucose other than α1→6 fucose
  Binding constant for sugar chain No. 728: <1000 M⁻¹
FAC binding constant; [2]
  Binding constant for sugar chain No. 419: <1000 M⁻¹
  Binding constant for sugar chain No. 420: <1000 M⁻¹
  Binding constant for sugar chain No. 718: <1000 M⁻¹
  Binding constant for sugar chain No. 719: <1000 M⁻¹
  Binding constant for sugar chain No. 720: <1000 M⁻¹
  Binding constant for sugar chain No. 721: <1000 M⁻¹
  Binding constant for sugar chain No. 722: <1000 M⁻¹
  Binding constant for sugar chain No. 723: <1000 M⁻¹
  Binding constant for sugar chain No. 726: <1000 M⁻¹
  Binding constant for sugar chain No. 727: <1000 M⁻¹
  Binding constant for sugar chain No. 729: <1000 M⁻¹
  Binding constant for sugar chain No. 730: <1000 M⁻¹
  Binding constant for sugar chain No. 731: <1000 M⁻¹
  Binding constant for sugar chain No. 739: <1000 M⁻¹
  Binding constant for sugar chain No. 909: <1000 M⁻¹
  Binding constant for sugar chain No. 910: <1000 M⁻¹
  Binding constant for sugar chain No. 931: <1000 M⁻¹
  Binding constant for sugar chain No. 932: <1000 M⁻¹
  Binding constant for sugar chain No. 933: <1000 M⁻¹
FAC binding constant; sugar chain having no fucose
  Binding constant for sugar chain No. 001: <1000 M⁻¹
  Binding constant for sugar chain No. 002: <1000 M⁻¹
  Binding constant for sugar chain No. 003: <1000 M⁻¹
  Binding constant for sugar chain No. 004: <1000 M⁻¹
  Binding constant for sugar chain No. 005: <1000 M⁻¹
  Binding constant for sugar chain No. 006: <1000 M⁻¹
  Binding constant for sugar chain No. 007: <1000 M⁻¹
  Binding constant for sugar chain No. 008: <1000 M⁻¹
  Binding constant for sugar chain No. 009: <1000 M⁻¹
  Binding constant for sugar chain No. 010: <1000 M⁻¹
  Binding constant for sugar chain No. 011: <1000 M⁻¹
  Binding constant for sugar chain No. 012: <1000 M⁻¹
  Binding constant for sugar chain No. 013: <1000 M⁻¹
  Binding constant for sugar chain No. 014: <1000 M⁻¹
  Binding constant for sugar chain No. 101: <1000 M⁻¹
  Binding constant for sugar chain No. 103: <1000 M⁻¹
  Binding constant for sugar chain No. 104: <1000 M⁻¹
  Binding constant for sugar chain No. 105: <1000 M⁻¹
  Binding constant for sugar chain No. 107: <1000 M⁻¹
  Binding constant for sugar chain No. 108: <1000 M⁻¹
  Binding constant for sugar chain No. 301: <1000 M⁻¹
  Binding constant for sugar chain No. 304: <1000 M⁻¹
  Binding constant for sugar chain No. 305: <1000 M⁻¹
  Binding constant for sugar chain No. 307: <1000 M⁻¹
  Binding constant for sugar chain No. 308: <1000 M⁻¹
